# Experimental data as given in patent US6034064A, “Peptides and therapeutic agent for autoimmune diseases containing the same” (Hoechst Pharmaceuticals & Chemicals K.K., priority 1995, dated 2000).
# No end group written: not given here.
# Assays:
# [1] = system: anti-KLH antibody production; experiment: Suppressive effect on anti-KLH antibody production in mice (ELISA of serum IgG); format: in vivo, mouse (Balb/c); settings: Example 7
# Experimental: Day 5 and day 3 prior to the antigen administration, 100 μg of each Peptide (I) to (VI) of the present invention composed of 9 amino acid residues indicated by Sequence ID No. 1 in the Sequence Listing were dissolved in 200 μl of physiological saline. The resulting solution was subcutaneously administered to 9-week-old Balb/c mice. As a control, a non-administered group to which the same amount of physiological saline was administered was employed. In 200 μl of physiological saline, 25 μg of KLH were dissolved as an antigen and the resulting solution was subcutaneously administered. The blood was collected on day 21 after antigen administration and an antibody titer was measured by the method which is described below.
# KLH was diluted to 10 μg/ml with a phosphate buffered physiological saline (PBS). Fifty μl portions of the resulting solution were poured into a 96-well microplate and the plate was allowed to stand at 4iC overnight. After the microplate was washed three times with 0.05% Tween®-20-containing PBS (T-PBS), 200 μl portions of 0.5% casein tris-buffered physiological saline (casein TBS) were poured into wells, respectively. […] The microplate was washed three times with T-PBS and 50 μl portions of the mouse serum diluted to 1/200 with casein TBS were poured into the wells, followed by reaction for one hour (primary reaction).
# The resulting microplate was washed three times with T-PBS, to which 50 μl portions of an anti-mouse IgG-peroxidase-labeled antibody (TAGO Co.) diluted to 1/4000 with casein TBS were poured. The reaction was effected at room temperature for one hour (secondary reaction). After the completion of the secondary reaction, the plate was washed three times again. Fifty μl portions of a substrate liquid/chromogen (chromogen substrate: Behringwerke AG) were poured into wells, respectively, followed by reaction at room temperature for 30 minutes. After the completion of the reaction, 0.5N diluted sulfuric acid was added to terminate the reaction and an absorbance at 450 nm was measured by a calorimeter ("BEP-II ", product of Behringwerke AG/Germany) with the absorbance at 650 nm as a control.
# In a similar manner to Example 3, suppressive effects of Peptides (I), (VII) to (XV) on anti-KLH antibody production in mice were studied.
# [2] = system: anti-OVA antibody production; experiment: Suppressive effect on anti-OVA antibody production in mice (ELISA of serum IgG); format: in vivo, mouse (Balb/c); set-up: Anti OVA Ig-G antibody titer: dose or concentration left out as unconfirmed; settings: for anti-OVA antibody production compared with Peptide (I) administered group / anti-OVA antibody production compared with the non-administered group and Peptide (I) administered group: Example 8
# Experimental: Day 5 and day 3 prior to the antigen administration, Peptide (I) composed of 9 amino acid residues as indicated by Sequence ID No. 1 in the Sequence Listing of the present invention and a synthetic peptide 15 composed of 15 amino acid residues derived from clone 17.2 TcR, which peptide had been reported by Mohapatra et al. as described above, 100 g each, were dissolved in 200 of physiological saline and each solution thus obtained was subcutaneously administered to 9-week-old Balb/c mice. As a control, a non-administered group to which the same amount of physiological saline was administered was employed. In 200 l of physiological saline, 100 g of OVA (Sigma Chemical Co.) were dissolved, followed by subcutaneous administration. Blood was collected on day 21 after antigen administration and an antibody titer was measured by the method described below.
# OVA was diluted to 10 µg/ml with phosphate buffered saline (PBS) and 50 l portions of the solution were poured in a 96-well microplate. The coating operation was conducted overnight at […]. The microplate was then washed three times with a 0.05% Tween®-20-containing PBS (T-PBS). 200 l portions of 0.5% casein-containing tris buffered physiological saline (casein TBS) were poured in each well and the microplate was allowed to stand at room temperature for one hour. The microplate was then washed three times with T-PBS. After the serum of the blood collected from the mice was diluted to 1/200 with 0.5% casein TBS, 50 l portions of the diluted serum were poured in each well and the plate was allowed to stand for one hour (primary reaction).
# After the completion of the primary reaction, the microplate was washed three times with T-PBS. Fifty l portions of anti-mouse IgG-peroxidase-labeled antibody (TAGO Co.) diluted to 1/4000 with 0.5% casein TBS were poured in each well, followed by reaction at room temperature for one hour (secondary reaction). After the completion of the secondary reaction, the plate was washed three times again. Fifty l portions of a substrate liquid/chromogen (chromogen substrate: Behringwerke AG) were poured in each well, followed by reaction at room temperature for 30 minutes. After the completion of the reaction, 0.5N diluted sulfuric acid was added to terminate the reaction and an absorbance at 450 nm was measured by a calorimeter ("BEP-II", product of Behringwerke AG/Germany) with an absorbance at 650 nm as a control.
# In a similar manner to Example 2, the suppressive effects of Peptides (I), (VII) to (XIV) on the anti-OVA antibody production in mice were measured.
# EAE model mice = experiment: Onset suppressive effect on EAE model mice; format: in vivo, mouse (SJL)
# Experimental: As an antigen, guinea pig spinal chord homogenate was employed. The guinea pig spinal chord homogenate was diluted with PBS to be 6.6 mg/ml, followed by the addition of the equivalent amount of Freunds complete adjuvant. The resulting mixture was formed into an emulsion by an ultrasonic sonicator. The resulting emulsion was administered to two areas under the lateral skin in a total amount of 300 μl. Day 5 and day 3 prior to antigen administration, and 5 days a week for 4 weeks after antigen administration, the solution of Peptide (I) dissolved in 100 μl physiological saline was subcutaneously administered to a 14-week old SJL mouse. Incidentally, in order to increase an onset ratio, […] of pertussis toxin (PTX) were intravenously administered as an enhancer on the day of antigen administration and two days after antigen administration. Observation of the onset was performed from day 14 to day 28 after primary antigen administration. The onset was scored based on the following standard criteria [Pettinelli, C. B., Fritz, D. E., and McFarlin, D. E. J. Immunl., 129, No. 3, 1024-1028 (1982)]. In Table 3, values of average score+standard deviation (SD) in each administration group on day 22, day 25 and day 28 after primary antigen administration are shown.
# Score 1: Slight paralysis of hind leg with tail weakness
# Score 2: Moderate paralysis of hind leg with tail weakness
# Score 3: Total paralysis of hind leg
# Score 4: Slight paralysis of forward leg with total paralysis of hind leg
# Score 5: Total paralysis of all leg
# Score 6: Death from paralysis
substance,measurement,setting,value
"AALTFGKG [Peptide (VIII), Ala-Ala-Leu-Thr-Phe-Gly-Lys-Gly]",anti-KLH antibody production compared with Peptide (I) administered group,[1],not suppressed
"AKATFGKG [Peptide (XIII), Ala-Lys-Ala-Thr-Phe-Gly-Lys-Gly]",anti-KLH antibody production compared with Peptide (I) administered group,[1],not suppressed
same,anti-OVA antibody production compared with Peptide (I) administered group,[2],not suppressed
"AKLAFGKG [Peptide (IX), Ala-Lys-Leu-Ala-Phe-Gly-Lys-Gly]",anti-KLH antibody production compared with the non-administered group and Peptide (I) administered group,[1],significantly suppressed
same,anti-OVA antibody production compared with the non-administered group and Peptide (I) administered group,[2],significantly suppressed
"AKLTAGKG [Peptide (XIV), Ala-Lys-Leu-Thr-Ala-Gly-Lys-Gly]",anti-KLH antibody production compared with Peptide (I) administered group,[1],not suppressed
same,anti-OVA antibody production compared with Peptide (I) administered group,[2],not suppressed
"AKLTFAKG [Peptide (X), Ala-Lys-Leu-Thr-Phe-Ala-Lys-Gly]",anti-KLH antibody production compared with the non-administered group and Peptide (I) administered group,[1],significantly suppressed
"AKLTFGAG [Peptide (XI), Ala-Lys-Leu-Thr-Phe-Gly-Ala-Gly]",anti-KLH antibody production compared with the non-administered group and Peptide (I) administered group,[1],significantly suppressed
same,anti-OVA antibody production compared with the non-administered group and Peptide (I) administered group,[2],significantly suppressed
"AKLTFGKA [Peptide (XII), Ala-Lys-Leu-Thr-Phe-Gly-Lys-Ala]",anti-KLH antibody production compared with Peptide (I) administered group,[1],not suppressed
"AKLTFGKG [Peptide (VII), Ala-Lys-Leu-Thr-Phe-Gly-Lys-Gly]",anti-KLH antibody production compared with the non-administered group and Peptide (I) administered group,[1],significantly suppressed
same,anti-OVA antibody production compared with the non-administered group and Peptide (I) administered group,[2],significantly suppressed
"AKLTFGKGT [Peptide (I), Ala-Lys-Leu-Thr-Phe-Gly-Lys-Gly-Thr]",EAE average score ± SD,"EAE model mice; 1 μg/body s.c., Day 22",1.6 ± 1.8 score
same,EAE average score ± SD,"EAE model mice; 1 μg/body s.c., Day 25",0.9 ± 1.1 score
same,EAE average score ± SD,"EAE model mice; 1 μg/body s.c., Day 28",1.8 ± 1.9 score
same,EAE average score ± SD,"EAE model mice; 5 μg/body s.c., Day 22",0.4 ± 0.7 score
same,EAE average score ± SD,"EAE model mice; 5 μg/body s.c., Day 25",1.0 ± 1.1 score
same,EAE average score ± SD,"EAE model mice; 5 μg/body s.c., Day 28",0.7 ± 0.8 score
same,onset of EAE compared with physiological saline group,"EAE model mice; 5 μg/body, day 25 and day 28, significant difference of 5%",suppressed
same,EAE average score ± SD,"EAE model mice; 25 μg/body s.c., Day 22 after primary antigen administration",0.3 ± 0.4 score
same,EAE average score ± SD,"EAE model mice; 25 μg/body s.c., Day 25",0.1 ± 0.3 score
same,EAE average score ± SD,"EAE model mice; 25 μg/body s.c., Day 28",0.0 ± 0.0 score
same,onset of EAE compared with physiological saline group,"EAE model mice; 25 μg/body, from day 22 significant difference of 5%, from day 25 of 1%",suppressed
same,onset of EAE,"EAE model mice; administration of Peptide (I), overall",suppressed
same,Anti OVA Ig-G antibody titer,"[2]; Example 2, Table 1, peptide s.c. day 5 and day 3 prior to OVA, blood day 21, 8 mice per group",8.8 ± 10.8 unit
same,anti-OVA antibody production compared with the non-administered group,"[2]; Example 2, 8 mice per group",significantly suppressed
"KLTFGKG [Peptide (XV), Lys-Leu-Thr-Phe-Gly-Lys-Gly]",anti-KLH antibody production compared with Peptide (I) administered group,[1],not suppressed
